Among the data in patent US12180226B2, “Spirotricycle RIPK1 inhibitors and methods of uses thereof” (Merck Sharp & Dohme LLC, priority 2021, dated 2024) are EC50 values, retold here.

Counter-ions that a name gives are not always drawn. Like-named read-outs stand apart in the source and are kept apart here.

For this experiment, the target named is RIPK1 (recombinant GST-RIPK1 kinase domain, residues 1-327) (Homo sapiens (Human), UniProt Q13546). In words: RIPK1-ADP-Glo Enzymatic Assay. It is filed as biochemical. To be noted: 25 nM GST-RIPK1, 300 μM ATP, assay lower limit ~25 nM. An outline of the steps:
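GST-tagged kinase domain (residues 1-327, Sf21-expressed), 25 nM, pre-incubated 30 min with compound at ambient temperature, then reacted 150 min with 300 μM ATP and 3 μM dephosphorylated MBP in HEPES pH 7.3 buffer. ADP measured by ADP-Glo luminescence; EC50 from ten-point titration (top 100000 nM), four-parameter fit.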
(ADP-Glo turns the ADP formed in a reaction into a luminescent signal.)

[1] abbreviates: ADP-Glo, read-out: RIPK1 V0 Ec50.

RIPK1 (recombinant GST-RIPK1 kinase domain, residues 1-327), sequence (Q13546 1-327): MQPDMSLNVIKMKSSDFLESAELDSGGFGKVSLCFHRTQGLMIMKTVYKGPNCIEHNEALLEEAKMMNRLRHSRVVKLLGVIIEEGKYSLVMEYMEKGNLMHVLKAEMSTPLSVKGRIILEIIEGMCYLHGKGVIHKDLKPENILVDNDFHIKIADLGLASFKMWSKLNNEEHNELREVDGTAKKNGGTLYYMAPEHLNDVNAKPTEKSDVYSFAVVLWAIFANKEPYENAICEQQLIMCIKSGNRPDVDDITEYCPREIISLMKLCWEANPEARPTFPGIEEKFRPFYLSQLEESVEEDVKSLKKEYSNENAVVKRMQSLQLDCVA

By EC50 is commonly meant the concentration needed to bring the measured effect to its halfway point. As to `N#Cc1ccc(N2CCC3(CC2)O[C@@H]2CC[C@@H](c4cc(F)cc(F)c4)N2C3=O)cc1Cl` [Example 4.20, 2-chloro-4-[(5′S,7a′R)-5′-(3,5-difluorophenyl)-3′-oxotetrahydro-1H,3′H-spiro[piperidine-4,2′-pyrrolo[2,1-b] [1,3]oxazol]-1-yl]benzonitrile], the half-maximal effective concentration (EC50) (RIPK1 V0 Ec50, ADP-Glo) is < 25 nM.
Turning to `Cc1ncc([C@@H]2CC[C@H]3OC4(CCN(C(=O)c5ccccc5)CC4)C(=O)N32)cc1F` [Example 2.1, (5′S,7a′R)-1-benzoyl-5′-(5-fluoro-6-methylpyridin-3-yl)tetrahydro-3′H-spiro[piperidine-4,2′-pyrrolo[2,1-b]oxazol]-3′-one, TFA salt.], under setting [1], the EC50 worked out at 76.5 nM.
Still for that read-out and setting: the figure for `Cc1nc(N2CCC3(CC2)O[C@@H]2CC[C@@H](c4cccc(F)c4)N2C3=O)ccc1C#N` [Example 4.77, 6-[(5′S,7a′R)-5′-(3-fluorophenyl)-3′-oxotetrahydro-1H,3′H-spiro[piperidine-4,2′-pyrrolo[2,1-b] [1,3]oxazol]-1-yl]-2-methylpyridine-3-carbonitrile] is < 25 nM; for `O=C1N2[C@@H](CC[C@H]2c2ccccc2)OC12CCN(c1ncnc3ccsc13)CC2` [Example 4.37, (5′S,7a′R)-5′-phenyl-1-(thieno[3,2-d]pyrimidin-4-yl)tetrahydro-3′H-spiro[piperidine-4,2′-pyrrolo[2,1-b] [1,3]oxazol]-3′-one] it is < 25 nM; for `CC1CN(c2ccnc3ccnn23)CCC12O[C@@H]1CC[C@@H](c3ccccc3)N1C2=O` (stereo partly drawn) [Example 4.235, (4R,5′S,7a′R)-3-methyl-5′-phenyl-1-(pyrazolo[1,5-a]pyrimidin-7-yl)tetrahydro-3′H-spiro[piperidine-4,2′-pyrrolo[2,1-b] [1,3]oxazol]-3′-one] it is < 25 nM.
In the case of `Cc1cccc(CN2CCC3(CC2)O[C@@H]2CC[C@@H](c4cc(F)cc(F)c4)N2C3=O)c1` [Example 22.4, (5′S,7a′R)-5′-(3,5-difluorophenyl)-1-[(3-methylphenyl)methyl] tetrahydro-3′H-spiro[piperidine-4,2′-pyrrolo[2,1-b][1,3]oxazol]-3′-one], the EC50 under setting [1] was 701 nM.
As for `N#Cc1cc(N2CCC3(CC2)O[C@@H]2CC[C@@H](c4cc(F)cc(F)c4)N2C3=O)ncn1` [Example 4.4, 6-[(5′S,7a′R)-5′-(3,5-difluorophenyl)-3′-oxotetrahydro-1H,3′H-spiro[piperidine-4,2′-pyrrolo[2,1-b] [1,3]oxazol]-1-yl]pyrimidine-4-carbonitrile], under setting [1], the EC50 was < 25 nM.
On the same count and under the same terms, the figure for `Cn1nc(C(F)(F)F)cc1-c1ccc(N2CCC3(CC2)O[C@@H]2CC[C@@H](c4ccccc4)N2C3=O)n2ncnc12` [Example 21.20, (5′S,7a′R)-1-{8-[1-methyl-3-(trifluoromethyl)-1H-pyrazol-5-yl][1,2,4]triazolo[1,5-a]pyridin-5-yl}-5′-phenyltetrahydro-3′H-spiro[piperidine-4,2′-pyrrolo[2,1-b][l,3]oxazol]-3′-one] is < 25 nM; for `NC(=O)c1nc(N2CCC3(CC2)O[C@@H]2CC[C@@H](c4cc(F)cc(F)c4)N2C3=O)ncc1F` [Example 4.184, 2-[(5′S,7a′R)-5′-(3,5-difluorophenyl)-3′-oxotetrahydro-1H,3′H-spiro[piperidine-4,2′-pyrrolo[2,1-b] [1,3]oxazol]-1-yl]-5-fluoropyrimidine-4-carboxamide] it is < 25 nM.
Same read-out and setting: to `O=C1CCc2nc(N3CCC4(CC3)O[C@@H]3CC[C@@H](c5ccccc5)N3C4=O)ccc21` [Example 4.196, (5′S,7a′R)-1-(5-oxo-6,7-dihydro-5H-cyclopenta[b]pyridin-2-yl)-5′-phenyltetrahydro-3′H-spiro[piperidine-4,2′-pyrrolo[2,1-b] [1,3]oxazol]-3′-one] belongs 31.7 nM; to `COc1ccnc(C(=O)N2CCC3(CC2)O[C@@H]2CC[C@@H](c4cc(F)cc(F)c4)N2C3=O)c1` [Example 6.91, (5′S,7a′R)-5′-(3,5-difluorophenyl)-1-(4-methoxypyridine-2-carbonyl)tetrahydro-3′H-spiro[piperidine-4,2′-pyrrolo[2,1-b] [1,3]oxazol]-3′-one], 706 nM; to `COc1ccc(F)c(C(=O)N2CCC3(CC2)O[C@@H]2CC[C@@H](c4cccc(F)c4)N2C3=O)c1` [Example 6.131, (5′S,7a′R)-1-(2-fluoro-5-methoxybenzene-1-carbonyl)-5′-(3-fluoro-phenyl)tetrahydro-3′H-spiro[piperidine-4,2′-pyrrolo[2,1-b] [1,3]oxazol]-3′-one], < 25 nM.
As for `O=C(c1ccccc1)N1CCC2(CC1)O[C@@H]1CC[C@@H](c3cnc4c(c3)CCC4)N1C2=O` [Example 17.12, (5′S,7a′R)-1-benzoyl-5′-(6,7-dihydro-5H-cyclopenta[b]pyridin-3-yl)tetrahydro-3′H-spiro[piperidine-4,2′-pyrrolo[2,1-b]oxazol]-3′-one], the EC50 under setting [1] was found to be 342 nM.
As to `Cc1cc2c(nc1N1CCC3(CC1)O[C@@H]1CC[C@@H](c4ccccc4)N1C3=O)CNC2=O` [Example 4.187, (5′S,7a′R)-1-(3-methyl-5-oxo-6,7-dihydro-5H-pyrrolo[3,4-b]pyridin-2-yl)-5′-phenyltetrahydro-3′H-spiro[piperidine-4,2′-pyrrolo[2,1-b] [1,3]oxazol]-3′-one], under setting [1], the EC50 was found to be 357 nM.
For `O=C1N2[C@@H](CC[C@H]2c2cc(F)cc(F)c2)OC12CCN(c1ncnc3ccnn13)CC2` [Example 4.128, (5′S,7a′R)-5′-(3,5-difluorophenyl)-1-(pyrazolo[1,5-a] [1,3,5]triazin-4-yl)tetrahydro-3′H-spiro[piperidine-4,2′-pyrrolo[2,1-b] [1,3]oxazol]-3′-one], under setting [1], the EC50 was < 25 nM.
Same read-out and setting: to `O=C1N2[C@@H](CC[C@H]2c2cc(F)cc(F)c2)OC12CCN(c1cccc3nccn13)CC2` [Example 13.5, (5′S,7a′R)-5′-(3,5-difluorophenyl)-1-(imidazo[1,2-a]pyridin-5-yl)tetrahydro-3′H-spiro[piperidine-4,2′-pyrrolo[2,1-b]oxazol]-3′-one, TFA salt] belongs 98.4 nM.
Same read-out and setting: to `Cc1c(Br)ccnc1C(=O)N1CCC2(CC1)O[C@@H]1CC[C@@H](c3cc(F)cc(F)c3)N1C2=O` [Example 6.80, (5′S,7a′R)-1-(4-bromo-3-methylpyridine-2-carbonyl)-5′-(3,5-difluorophenyl)tetra-hydro-3′H-spiro [piperidine-4,2′-pyrrolo[2,1-b][1,3]-oxazol]-3′-one] belongs 153 nM.
In the case of `Cc1cnc(C(=O)N2CCC3(CC2)O[C@@H]2CC[C@@H](c4cc(F)cc(F)c4)N2C3=O)cn1` [Example 6.3, (5′S,7a′R)-5′-(3,5-difluorophenyl)-1-(5-methylpyrazine-2-carbonyl)tetrahydro-3′H-spiro[piperidine-4,2′-pyrrolo[2,1-b] [1,3]oxazol]-3′-one], under setting [1], the EC50 amounted to 60.1 nM.
As for `Cc1ncc([C@@H]2CC[C@H]3OC4(CCN(C(=O)c5ccccc5)CC4F)C(=O)N32)cc1F` (stereo partly drawn) [Example 2.9, (5′S,7a′R)-1-(benzenecarbonyl)-3-fluoro-5′-(5-fluoro-6-methylpyridin-3-yl)tetrahydro-3′H-spiro[piperidine-4,2′-pyrrolo[2,1-b][1,3]oxazol]-3′-one], under setting [1], the EC50 amounted to 106 nM.
In the case of `O=C(c1coc2ccccc12)N1CCC2(CC1)O[C@@H]1CC[C@@H](c3cc(F)cc(F)c3)N1C2=O` [Example 5.70], under setting [1], the EC50 is < 25 nM.
Same read-out and setting: the figure for `CSc1nc(C)cc(N2CCC3(CC2)O[C@@H]2CC[C@@H](c4ccccc4)N2C3=O)n1` [Example 4.36, (5′S,7a′R)-1-[6-methyl-2-(methylsulfanyl)pyrimidin-4-yl]-5′-phenyltetrahydro-3′H-spiro[piperidine-4,2′-pyrrolo[2,1-b] [1,3]oxazol]-3′-one] is 37.4 nM; for `O=C(c1ccccc1)N1CCC2(CC1)O[C@@H]1CC[C@@H](c3cnccn3)N1C2=O` [Example 17.1, (5′S,7a′R)-1-benzoyl-5′-(pyrazin-2-yl)tetrahydro-3′H-spiro[piperidine-4,2′-pyrrolo[2,1-b]oxazol]-3′-one, TFA] it is 34.4 nM; for `Cc1nnc(C(=O)N2CCC3(CC2)O[C@@H]2CC[C@@H](c4cc(F)cc(F)c4)N2C3=O)o1` [Example 5.76, (5′S,7a′R)-5′-(3,5-difluoro-phenyl)-1-(5-methyl-1,3,4-oxadiazole-2-carbonyl)-tetrahydro-3′H-spiro[piperi-dine-4,2′-pyrrolo[2,1-b] [1,3]oxazol]-3′-one] it is 924 nM.
Same read-out and setting: the figure for `COc1nc(N2CCC3(CC2)O[C@@H]2CC[C@@H](c4cc(F)cc(F)c4)N2C3=O)ncc1Cl` [Example 4.62, (5′S,7a′R)-1-(5-chloro-4-methoxypyrimidin-2-yl)-5′-(3,5-difluorophenyl)tetrahydro-3′H-spiro[piperidine-4,2′-pyrrolo[2,1-b] [1,3]oxazol]-3′-one] is 39.2 nM; for `O=C1N2[C@@H](CC[C@H]2c2ccccc2)OC12CCN(c1ncnc3ccnn13)CC2F` (single isomer, unassigned) [Example 4.98, (3[S or R],4[R or S], 5′S,7a′R)-3-fluoro-5′-phenyl-1-(pyrazolo [1,5-a][1,3,5]triazin-4-yl)tetrahydro-3′H-spiro[piperidine-4,2′-pyrrolo[2,1-b]oxazol]-3′-one] it is 36.3 nM; for `O=C(c1ccccc1)N1CC2(C1)O[C@@H]1CC[C@@H](c3ccccc3F)N1C2=O` [Example 1.19, (5′S,7a′R)-1-benzoyl-5′-(2-fluorophenyl)tetrahydro-3′H-spiro[azetidine-3,2′-pyrrolo[2,1-b]oxazol]-3′-one] it is 82.9 nM.
